Reference: patent US10183014B2, “Ocular formulations for drug-delivery and protection of the anterior segment of the eye” (PanOptica, Inc., priority 2014, dated 2019)
Like-named read-outs stand apart in the source and are kept apart here.

Columns and labels:
AURKB (Aurora B) = AURKB (Aurora B) (Homo sapiens, UniProt Q96GD4); assay: In vitro inhibition of tyrosine kinases; type: biochemical; details: read-out: Mean % Inhibition at 1 μM Compound-I; 1 μM (568.9 ng/mL)
MAP4K5 (KHS1) = MAP4K5 (KHS1) (Homo sapiens, UniProt Q9Y4K4); assay: In vitro inhibition of tyrosine kinases; type: biochemical; details: read-out: Mean % Inhibition at 1 μM Compound-I; 1 μM (568.9 ng/mL)
SRC N1 = SRC N1 (Homo sapiens, UniProt P12931); assay: In vitro inhibition of tyrosine kinases; type: biochemical; details: read-out: Mean % Inhibition at 1 μM Compound-I; 1 μM (568.9 ng/mL)
[1] = Ocular toxicology studies (tolerability and ocular tissue concentrations); type: in vivo, Dutch-Belted rabbits; details: for concentration at 29 days: Dutch-Belted, topical, 0.3 %, 0.3% Ophthalmic Gel Drop (with and without benzylalkonium chloride), twice daily
Description: (§1) Retinal function was normal in all test article and vehicle treated groups during full-field electroretinograms performed in rabbits.

[2] = Particle size distribution by laser diffraction light scattering; type: physicochemical; details: API form HCl salt
Description: Particle size distribution can be analyzed using laser diffraction light scattering, e.g., with a Horiba LA-950 V2. Generic assumptions are made in setting conditions and the refractive index value. The distributions are volume based. Sample density is adjusted to a generic range of percent transmission on the blue LED light source. A small sample cell (filled with water) can be used rather than the flow through cell, to minimize sample quantity.
Particle size distribution was analyzed using laser diffraction light scattering with a Horiba LA-950 V2. Generic assumptions were made in setting conditions and the refractive index value. The distributions were volume based. Sample density was adjusted to a generic range of percent transmission on the blue LED light source. A small sample cell (filled with water) was used rather than the flow through cell, to minimize sample quantity.

ABL1 Y253F = ABL1 Y253F (Homo sapiens, UniProt P00519, Y253F); assay: In vitro inhibition of tyrosine kinases; type: biochemical; details: read-out: Mean % Inhibition at 1 μM Compound-I; 1 μM (568.9 ng/mL)
MINK1 = MINK1 (Homo sapiens, UniProt Q8N4C8); assay: In vitro inhibition of tyrosine kinases; type: biochemical; details: read-out: Mean % Inhibition at 1 μM Compound-I; 1 μM (568.9 ng/mL)
human tumor xenographs = assay: Growth of human tumor xenographs in athymic mice; type: in vivo; details: systemic administration
[3] = Ocular toxicology studies; type: in vivo, beagle dogs
Description: as §1

EPHB-1 = EPHB-1 (Homo sapiens, UniProt P54762); assay: In vitro inhibition of tyrosine kinases; type: biochemical; details: read-out: Mean % Inhibition at 1 μM Compound-I; 1 μM (568.9 ng/mL)
PDGFRA T674I = PDGFRA T674I (Homo sapiens, UniProt P16234, T674I); assay: In vitro inhibition of tyrosine kinases; type: biochemical; details: read-out: Mean % Inhibition at 1 μM Compound-I; 1 μM (568.9 ng/mL)
[4] = Ocular pharmacokinetics of formulations, Example 20-4; type: in vivo, Dutch Belted rabbits; details: Dutch Belted, rabbit, topical, Day 5, 1 hr post dose
Description: The study design (Table 18-1) consisted of forty-nine (49) Dutch Belted rabbits, each receiving a 30 μL bilateral topical ocular dose.
Ocular sampling occurred one hour following the first daily dose on Day 5 for all groups. Whole blood samples using K2EDTA as an anticoagulant were collected from all animals on Day 5, 1 hour post dose. The whole blood was placed on ice until samples were spun in a centrifuge to separate the plasma. Aqueous humor, conjunctiva, cornea, central retina, peripheral retina, central choroid, and peripheral choroid samples were collected following necropsy. Samples were then frozen at −70° C. or lower. For all Groups 1-16, plasma, central retina, central choroid, and cornea samples were assayed for PAN-90806.

[5] = discomfort, inflammation, corneal thinning
[6] = ophthalmic gel drops, topical ocular dosing
[7] = excipient HPMC, roller speed low, media size 3 mm, particles under storage 21 days, RT
[8] = excipient Pluronic F-127, roller speed high, media size 0.8 mm
[9] = excipient Tyloxapol, milling not given
[10] = excipient Tyloxapol, roller speed high, media size 0.8 mm, particles under storage 6 days, 40° C.
[11] = excipient Tyloxapol, roller speed low, media size 3 mm

Sequence of PDGFRA T674I (P16234 24-1089 T674I): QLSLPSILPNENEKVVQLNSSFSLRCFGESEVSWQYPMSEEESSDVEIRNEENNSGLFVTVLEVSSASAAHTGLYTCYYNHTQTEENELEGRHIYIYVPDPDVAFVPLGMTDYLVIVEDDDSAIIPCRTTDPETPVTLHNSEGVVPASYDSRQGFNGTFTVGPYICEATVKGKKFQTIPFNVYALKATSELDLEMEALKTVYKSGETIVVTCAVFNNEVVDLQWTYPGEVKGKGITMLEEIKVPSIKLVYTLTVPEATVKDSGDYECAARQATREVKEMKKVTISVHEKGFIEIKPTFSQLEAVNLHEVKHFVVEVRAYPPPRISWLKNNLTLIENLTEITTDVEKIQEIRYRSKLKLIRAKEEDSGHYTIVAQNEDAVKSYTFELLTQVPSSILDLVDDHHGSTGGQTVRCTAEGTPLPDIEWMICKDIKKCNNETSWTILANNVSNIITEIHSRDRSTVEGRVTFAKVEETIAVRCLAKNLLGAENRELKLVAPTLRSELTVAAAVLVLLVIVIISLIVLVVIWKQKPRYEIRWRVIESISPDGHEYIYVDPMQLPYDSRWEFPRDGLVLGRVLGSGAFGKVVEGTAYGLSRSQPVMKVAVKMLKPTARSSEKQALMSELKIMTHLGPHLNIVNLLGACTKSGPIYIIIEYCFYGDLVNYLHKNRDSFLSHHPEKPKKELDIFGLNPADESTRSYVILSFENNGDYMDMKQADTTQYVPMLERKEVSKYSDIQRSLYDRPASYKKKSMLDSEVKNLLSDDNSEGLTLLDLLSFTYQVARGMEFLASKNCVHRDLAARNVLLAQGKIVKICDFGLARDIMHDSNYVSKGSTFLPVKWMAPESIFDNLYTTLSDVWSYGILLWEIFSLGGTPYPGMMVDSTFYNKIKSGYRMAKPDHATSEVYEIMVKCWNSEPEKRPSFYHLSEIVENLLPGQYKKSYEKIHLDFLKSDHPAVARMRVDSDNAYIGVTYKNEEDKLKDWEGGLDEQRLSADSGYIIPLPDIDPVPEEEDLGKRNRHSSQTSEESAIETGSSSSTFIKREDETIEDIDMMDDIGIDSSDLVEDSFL
Sequence of SRC N1 (P12931 1-542 isoform P12931-2): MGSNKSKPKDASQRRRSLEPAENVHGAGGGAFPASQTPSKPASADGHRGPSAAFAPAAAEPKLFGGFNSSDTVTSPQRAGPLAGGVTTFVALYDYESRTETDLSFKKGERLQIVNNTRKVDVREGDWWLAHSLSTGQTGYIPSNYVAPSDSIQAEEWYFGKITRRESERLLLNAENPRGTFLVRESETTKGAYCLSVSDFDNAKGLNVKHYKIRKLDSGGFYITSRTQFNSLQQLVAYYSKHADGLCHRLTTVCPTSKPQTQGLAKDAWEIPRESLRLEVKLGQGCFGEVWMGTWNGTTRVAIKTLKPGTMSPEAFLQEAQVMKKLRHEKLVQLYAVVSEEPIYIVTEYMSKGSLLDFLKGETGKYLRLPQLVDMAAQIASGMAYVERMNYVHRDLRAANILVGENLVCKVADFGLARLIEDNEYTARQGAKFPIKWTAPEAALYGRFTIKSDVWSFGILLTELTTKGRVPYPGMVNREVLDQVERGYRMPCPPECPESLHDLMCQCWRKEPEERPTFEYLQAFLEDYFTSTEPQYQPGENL
Sequence of EPHB-1 (P54762 18-984, species assumed): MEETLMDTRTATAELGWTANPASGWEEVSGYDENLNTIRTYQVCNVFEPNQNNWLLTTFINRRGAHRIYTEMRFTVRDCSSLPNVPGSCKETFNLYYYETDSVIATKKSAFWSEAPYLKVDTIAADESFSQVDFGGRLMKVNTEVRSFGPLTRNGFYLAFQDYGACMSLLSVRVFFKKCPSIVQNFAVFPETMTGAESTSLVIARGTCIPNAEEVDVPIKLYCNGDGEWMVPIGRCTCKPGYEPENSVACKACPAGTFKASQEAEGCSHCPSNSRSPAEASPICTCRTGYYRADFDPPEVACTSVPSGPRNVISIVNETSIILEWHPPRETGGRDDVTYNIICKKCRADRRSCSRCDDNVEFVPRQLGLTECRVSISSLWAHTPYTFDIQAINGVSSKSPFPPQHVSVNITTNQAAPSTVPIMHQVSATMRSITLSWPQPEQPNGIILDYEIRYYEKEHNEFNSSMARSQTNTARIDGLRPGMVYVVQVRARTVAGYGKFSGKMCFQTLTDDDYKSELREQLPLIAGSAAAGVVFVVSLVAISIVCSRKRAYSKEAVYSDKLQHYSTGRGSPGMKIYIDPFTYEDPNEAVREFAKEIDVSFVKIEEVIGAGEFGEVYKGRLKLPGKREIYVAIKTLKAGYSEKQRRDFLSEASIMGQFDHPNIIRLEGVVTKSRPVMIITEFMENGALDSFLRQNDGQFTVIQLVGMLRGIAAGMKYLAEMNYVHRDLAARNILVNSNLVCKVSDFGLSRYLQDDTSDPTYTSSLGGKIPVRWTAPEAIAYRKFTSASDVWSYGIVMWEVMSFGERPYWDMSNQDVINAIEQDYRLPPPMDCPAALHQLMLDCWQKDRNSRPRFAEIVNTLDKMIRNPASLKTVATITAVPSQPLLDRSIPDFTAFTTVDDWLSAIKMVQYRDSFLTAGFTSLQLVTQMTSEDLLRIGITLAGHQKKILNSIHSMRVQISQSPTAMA
Sequence of MAP4K5 (KHS1) (Q9Y4K4 whole entry, species assumed): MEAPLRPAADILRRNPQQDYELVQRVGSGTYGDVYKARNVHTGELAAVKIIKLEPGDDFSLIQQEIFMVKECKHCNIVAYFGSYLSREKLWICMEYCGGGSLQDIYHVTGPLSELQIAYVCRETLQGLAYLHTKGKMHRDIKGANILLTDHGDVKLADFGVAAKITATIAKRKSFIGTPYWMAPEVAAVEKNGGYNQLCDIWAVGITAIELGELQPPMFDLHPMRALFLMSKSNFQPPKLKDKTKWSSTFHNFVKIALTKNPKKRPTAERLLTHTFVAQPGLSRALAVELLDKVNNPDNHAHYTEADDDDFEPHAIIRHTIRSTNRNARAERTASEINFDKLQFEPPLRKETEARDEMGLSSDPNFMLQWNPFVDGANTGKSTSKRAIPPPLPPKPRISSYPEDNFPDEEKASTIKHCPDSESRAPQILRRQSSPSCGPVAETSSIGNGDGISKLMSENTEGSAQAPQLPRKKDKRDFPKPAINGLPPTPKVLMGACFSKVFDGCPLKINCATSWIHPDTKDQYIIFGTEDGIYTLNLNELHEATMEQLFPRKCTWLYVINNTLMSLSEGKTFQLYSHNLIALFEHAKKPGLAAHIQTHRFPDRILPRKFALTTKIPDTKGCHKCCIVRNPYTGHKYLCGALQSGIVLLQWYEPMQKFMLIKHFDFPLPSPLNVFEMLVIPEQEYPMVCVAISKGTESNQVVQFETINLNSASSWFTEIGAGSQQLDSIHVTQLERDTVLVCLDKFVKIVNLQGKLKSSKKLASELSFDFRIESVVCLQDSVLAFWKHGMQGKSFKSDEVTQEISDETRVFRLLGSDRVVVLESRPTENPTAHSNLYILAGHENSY
Sequence of MINK1 (Q8N4C8 whole entry, species assumed): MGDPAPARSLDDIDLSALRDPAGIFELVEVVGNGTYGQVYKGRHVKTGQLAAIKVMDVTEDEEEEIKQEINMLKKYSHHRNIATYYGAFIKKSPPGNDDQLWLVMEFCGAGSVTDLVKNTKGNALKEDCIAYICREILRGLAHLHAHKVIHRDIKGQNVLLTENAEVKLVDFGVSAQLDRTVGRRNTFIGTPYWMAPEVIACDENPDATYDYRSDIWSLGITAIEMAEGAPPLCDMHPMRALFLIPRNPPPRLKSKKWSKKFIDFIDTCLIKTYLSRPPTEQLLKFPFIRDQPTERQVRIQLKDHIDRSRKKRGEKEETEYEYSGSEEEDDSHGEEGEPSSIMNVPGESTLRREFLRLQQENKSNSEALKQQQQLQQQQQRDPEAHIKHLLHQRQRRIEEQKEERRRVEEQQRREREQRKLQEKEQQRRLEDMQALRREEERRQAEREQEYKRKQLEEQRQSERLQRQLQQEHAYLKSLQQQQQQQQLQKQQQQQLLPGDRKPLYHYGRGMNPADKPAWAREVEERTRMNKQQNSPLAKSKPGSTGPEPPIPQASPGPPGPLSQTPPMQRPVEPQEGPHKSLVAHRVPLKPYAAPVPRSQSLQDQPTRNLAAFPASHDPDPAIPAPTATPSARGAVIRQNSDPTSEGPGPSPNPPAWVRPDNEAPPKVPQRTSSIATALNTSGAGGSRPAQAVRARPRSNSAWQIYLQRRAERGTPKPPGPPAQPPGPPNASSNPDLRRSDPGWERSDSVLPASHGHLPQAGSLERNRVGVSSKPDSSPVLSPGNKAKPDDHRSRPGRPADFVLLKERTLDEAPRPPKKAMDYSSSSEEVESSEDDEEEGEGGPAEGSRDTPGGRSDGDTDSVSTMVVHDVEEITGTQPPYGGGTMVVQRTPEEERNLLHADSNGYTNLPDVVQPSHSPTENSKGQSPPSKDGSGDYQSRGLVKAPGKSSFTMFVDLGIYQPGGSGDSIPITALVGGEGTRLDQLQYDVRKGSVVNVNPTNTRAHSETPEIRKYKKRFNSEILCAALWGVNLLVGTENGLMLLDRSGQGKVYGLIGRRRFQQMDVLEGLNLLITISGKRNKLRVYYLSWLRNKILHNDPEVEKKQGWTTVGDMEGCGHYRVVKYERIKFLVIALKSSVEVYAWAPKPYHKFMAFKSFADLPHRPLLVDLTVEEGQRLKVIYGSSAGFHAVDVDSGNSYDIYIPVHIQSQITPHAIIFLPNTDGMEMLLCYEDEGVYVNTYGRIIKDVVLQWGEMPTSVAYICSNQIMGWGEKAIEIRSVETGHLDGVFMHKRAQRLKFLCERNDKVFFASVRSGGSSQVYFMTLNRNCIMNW
Sequence of AURKB (Aurora B) (Q96GD4 whole entry, species assumed): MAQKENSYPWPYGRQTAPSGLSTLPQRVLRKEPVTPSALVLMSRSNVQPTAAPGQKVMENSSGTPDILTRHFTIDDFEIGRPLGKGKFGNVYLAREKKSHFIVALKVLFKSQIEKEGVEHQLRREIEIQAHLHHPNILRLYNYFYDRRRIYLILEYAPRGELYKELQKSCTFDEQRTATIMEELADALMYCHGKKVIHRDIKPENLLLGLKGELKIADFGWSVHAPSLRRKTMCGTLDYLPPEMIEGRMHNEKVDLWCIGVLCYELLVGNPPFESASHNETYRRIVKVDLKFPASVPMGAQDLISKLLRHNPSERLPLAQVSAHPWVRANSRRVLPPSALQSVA

With `Cl.NC(=O)c1c(OCc2c(F)cc(Br)cc2F)nsc1NC(=O)NCCCCN1CCCC1` [Compound-I, 3-[(4-bromo-2,6-difluorophenyl)methoxy]-5-[[[[4-(1-pyrrolidinyl)butyl]amino]carbonyl]amino]-4-isothiazolecarboxamide hydrochloride] the inhibition at 1 µM (AURKB (Aurora B)) was 82%, the inhibition at 1 µM (MAP4K5 (KHS1)) was 94% and the inhibition at 1 µM (SRC N1) was 83%. The “Microscopic evaluation of eyes” value ([1]; 0.3% w/v Tris-based suspension twice daily for 30 days) was “considered normal”, the “Findings attributed to test-article or vehicle” value ([1]; 0.6% cyclodextrin-based solution, 30 days topical ocular dosing) was “no untoward findings” and the concentration at 29 days ([1]; rabbit, central choroid, read-out: Central Choroid [Compound I]) was 340 to 496 nM. The concentration at 29 days ([1]; rabbit, cornea, read-out: Cornea [Compound I]) was 236000 to 260000 nM, the “Retinal function (full-field electroretinograms)” value ([1]; all test article groups) was “normal” and the “Cornea concentration above which ocular side effects were more consistently observed” value [1, 5] was “exceeded 100 μM”. The Corneal tissue exposure [1, 6] was at least 100 µM, the “Corneal concentration, Gel Drop compared to Tris-based suspensions” value ([1]; rabbit, in vivo) was “fifty-fold to hundred-fold higher” and the “Corneal concentration, Gel Drop compared to cyclodextrin based solution” value ([1]; rabbit, in vivo) was “five-fold to fifteen-fold higher”. For the same molecule, the “Ocular tolerability (clinical ophthalmic examinations)” value ([1]; rabbit, in vivo) was “well tolerated”, the “Reduction of corneal exposure versus Gel Drop” value ([1]; suspension-based and cyclodextrin formulations) was 10-100 × and the “Reduction in corneal concentrations, cyclodextrin-based solution versus equimolar Gel Drop” value ([1]; topical ocular dosing 1 to 30 days, hydrochloride) was about 10 fold. For the same molecule, the “PSD (Particle Size Distribution) Mean” value [2, 7] was about 450 nm, the “PSD (Particle Size Distribution) Median” value [2, 7] was about 170 nm and the “PSD (Particle Size Distribution) Mean” value [2, 8] was about 100 nm. For the same molecule, the “PSD (Particle Size Distribution) Median” value [2, 8] was about 100 nm, the “PSD (Particle Size Distribution) Mean” value [2, 9] was about 110 nm and the “PSD (Particle Size Distribution) Median” value [2, 9] was about 110 nm. The “PSD (Particle Size Distribution) Mean” value [2, 10] was about 120 nm, the “PSD (Particle Size Distribution) Median” value [2, 10] was about 110 nm and the “PSD (Particle Size Distribution) Mean” value [2, 11] was about 8500 nm. The “PSD (Particle Size Distribution) Median” value [2, 11] was about 6700 nm, the inhibition at 1 µM (ABL1 Y253F) was 93% and the inhibition at 1 µM (MINK1) was 100%. For the same molecule, the “Growth of human tumor xenographs” value (human tumor xenographs) was “inhibit”, the “Cornea concentration above which ocular side effects were more consistently observed” value [3, 5] was “exceeded 100 μM” and the Corneal tissue exposure [3, 6] was at least 100 µM. For the same molecule, the inhibition at 1 µM (EPHB-1) was 83%, the inhibition at 1 µM (PDGFRA T674I) was 86% and the concentration at 1 h ([4]; central choroid, 4 mg/mL (30 μL per eye, bilateral), pH 6, Group 3: 4 mg/mL Salt, eye drops solution (control), pH 6, QD, read-out: Central Choroid concentration) was 181 nM. The concentration at 1 h ([4]; central choroid, 4 mg/mL (30 μL per eye, bilateral), Group 16: 4 mg/mL Salt suspension, PSD 30 μm/XL, TRIS 0.60%, glycerol 2%, HEC 0.2%, HPMC 0.08%, VitK3 1 μM, pH 7, QD, read-out: Central Choroid concentration) was 208 nM, the concentration at 1 h ([4]; central choroid, 30 μL per eye of 4 mg/mL suspension, Group 7: 4 mg/mL Salt suspension, PSD 30 μm/XL, TRIS 0.60%, glycerol 2%, HEC 0.3%, Tylox 0.04%, VitK3 1 μM, pH 6, QD, read-out: Central Choroid concentration) was 142 nM and the concentration at 1 h ([4]; central choroid, 30 μL per eye of 4 mg/mL suspension, Group 9: 4 mg/mL Salt suspension, PSD 30 μm/XL, TRIS 0.60%, glycerol 2%, HEC 0.3%, Tylox 0.04%, VitK3 1 μM, pH 7, QD, read-out: Central Choroid concentration) was 224 nM. The concentration at 1 h ([4]; central choroid, 30 μL per eye of 6 mg/mL suspension, Group 6: 6 mg/mL Salt suspension, PSD 30 μm/XL, TRIS 0.60%, glycerol 2%, HEC 0.2%, HPMC 0.08%, VitK3 1 μM, pH 6, QD, read-out: Central Choroid concentration) was 243 nM, the concentration at 1 h ([4]; central retina, 0.3 mg/mL (30 μL per eye, bilateral), pH 6, Group 1: 0.3 mg/mL Salt, pH 6, BID, read-out: Central Retina concentration) was 16.3 nM and the concentration at 1 h ([4]; central retina, 1 mg/mL (30 μL per eye, bilateral), pH 6, Group 2: 1 mg/mL Salt, eye drops solution (control), pH 6, QD, read-out: Central Retina concentration) was 34.7 nM. For the same molecule, the concentration at 1 h ([4]; central retina, 4 mg/mL (30 μL per eye, bilateral), pH 6, Group 3: 4 mg/mL Salt, eye drops solution (control), pH 6, QD, read-out: Central Retina concentration) was 83.7 nM and the concentration at 1 h ([4]; central retina, 4 mg/mL (30 μL per eye, bilateral), Group 16: 4 mg/mL Salt suspension, PSD 30 μm/XL, TRIS 0.60%, glycerol 2%, HEC 0.2%, HPMC 0.08%, VitK3 1 μM, pH 7, QD, read-out: Central Retina concentration) was 74.4 nM.
